For series [1], the target named is T1, Nuclear receptor ROR-gamma (Homo sapiens, UniProt P51449).
T1 sequence (P51449 whole entry): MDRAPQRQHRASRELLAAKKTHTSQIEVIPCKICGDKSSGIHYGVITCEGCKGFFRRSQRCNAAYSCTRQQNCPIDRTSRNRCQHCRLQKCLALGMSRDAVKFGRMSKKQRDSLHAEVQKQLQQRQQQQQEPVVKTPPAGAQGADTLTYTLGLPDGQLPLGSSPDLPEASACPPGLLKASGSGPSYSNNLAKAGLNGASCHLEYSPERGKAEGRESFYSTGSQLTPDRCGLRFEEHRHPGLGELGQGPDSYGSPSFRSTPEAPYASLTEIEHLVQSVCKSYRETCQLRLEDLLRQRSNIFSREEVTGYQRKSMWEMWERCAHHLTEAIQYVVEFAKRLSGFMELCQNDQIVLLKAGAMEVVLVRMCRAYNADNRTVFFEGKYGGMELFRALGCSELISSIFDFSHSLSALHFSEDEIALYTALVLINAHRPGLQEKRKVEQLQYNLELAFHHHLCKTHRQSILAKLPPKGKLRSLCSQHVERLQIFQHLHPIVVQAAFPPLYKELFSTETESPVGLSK

Series [2] in a line: in vitro. As to conditions: CD-1, mouse, liver microsomes.
A short description of series [3]: Half life in CD-1 mouse liver microsomes at 1 uM measured up to 60 mins in presence of NADPH by LC-MS/MS analysis.
The nature of series [4]: in vitro. As to conditions: CD-1, mouse, liver.
The target of series [5] is T1, Nuclear receptor ROR-gamma. The series is described as follows: Agonist activity at APC-labeled RORgammat LBD (unknown origin) incubated for 1 hr in presence of europium-labeled co-activator SRC1 by FRET assay.

In the case of `CC(=O)N1CCN(c2ccc3c(c2)CCCN3S(=O)(=O)N(C)Cc2ccc(C(F)(F)F)cc2)CC1`, the XC50 in series [1] is 1.55 µM.

`CC(=O)N1CCN(c2ccc3c(c2)CCCN3S(=O)(=O)N(C)CCc2ccccc2)CC1` gave an XC50 in series [1] of 0.91 µM.

Take `CC(=O)N1CCN(c2ccc3c(c2)CCCN3S(=O)(=O)N(C)Cc2ccccc2Cl)CC1`: the XC50 in series [1] is 0.086 µM.

In turn, `CC(=O)N1CCN(c2ccc(CN(C3CCC3)S(=O)(=O)Cc3ccccc3)cc2)CC1` registered a microsomal CLint at 1 h, 1 µM in series [2] of 612 µL/min/mg. For the same molecule, the half-life at 1 h, 1 µM in series [3] is 2.3 min. In series [4], this molecule gave a CLint scaled at 1 h, 1 µM of 2420 mL/min/kg.

The molecule `CC(=O)N1CCN(c2ccc3c(c2)CCCN3S(=O)(=O)N(C)CCCc2ccccc2)CC1` displayed an XC50 in series [1] of 7.23 µM.

With `CC(=O)N1CCN(c2ccc3c(c2)CCCN3S(=O)(=O)N(C)Cc2cccc(Cl)c2)CC1`, the XC50 in series [1] amounted to 0.104 µM.

The molecule `CC(=O)N1CCN(c2ccc3c(c2)CCCN3S(=O)(=O)N(C)Cc2ccccc2C)CC1` registered an XC50 in series [1] of 0.143 µM.

For `CC(=O)N1CCN(c2ccc3c(c2)CCCN3S(=O)(=O)N(C)Cc2cccc(C)c2)CC1`, in series [1], the XC50 was determined as 0.768 µM.

`CC(=O)N1CCN(c2ccc3c(c2)CCCN3S(=O)(=O)CCc2ccccc2)CC1`: the XC50 in series [1] came out at 0.906 µM.

The molecule `CC(=O)N1CCN(c2ccc3c(c2)CCCN3S(=O)(=O)N(C)Cc2cccc(F)c2)CC1` showed an XC50 in series [1] of 0.324 µM.

With `CC(=O)N1CCN(c2ccc3c(c2)CCCN3S(=O)(=O)c2ccccc2)CC1`, the EC50 in series [5] was 4.84 µM.

By microsomal CLint is commonly meant the rate of metabolic loss divided by the concentration. Higher therefore signals faster metabolism. The term half-life denotes the time needed for the level to fall by half in the phase considered. A word on the CLint scaled: it is the rate of metabolic loss divided by the concentration. A low value points to greater metabolic stability. One may read the EC50 as the midpoint of the concentration-response curve.

The record behind these values is ChEMBL document CHEMBL4706491, “Discovery of novel N-sulfonamide-tetrahydroquinolines as potent retinoic acid receptor-related orphan receptor γt inverse agonists for the treatment of autoimmune diseases” (Eur J Med Chem, 2020).
